Assay results published in ChEMBL document CHEMBL1129222, “Anti-AIDS agents. 291. Anti-HIV activity of modified podophyllotoxin derivatives” (Bioorg Med Chem Lett, 1997).

What was measured:
H9 [1] = assay: Cytotoxicity against H9 cell line; type: functional, cell-based; details: Homo sapiens
[2] = Therapeutic index (IC50/EC50); type: cell-based; details: human, H9 cells; read-out: Therapeutic index
H9 [3] = assay: Evaluation for anti-HIV activity using T cell line (H9).; type: functional, cell-based; details: Homo sapiens
H9 [4] = assay: The compound was evaluated for anti-HIV activity using T cell line (H9); No suppression; type: functional, cell-based, Homo sapiens
H9 [5] = assay: The compound was evaluated for cytotoxicity against H9 cell line; Toxic; type: toxicity, cell-based, Homo sapiens
H9 [6] = assay: The compound was evaluated for anti-HIV activity using T cell line (H9); details: Homo sapiens
H9 [7] = assay: as above; details: Homo sapiens; remark: listed apart in the source

EC50 (H9 [3]) | EC50 (H9 [4]) | EC50 (H9 [6]) | EC50 (H9 [7]) | Compound | IC50 (H9 [1]) | selectivity ratio [2] | IC50 (H9 [5])
800 nM |  |  |  | COc1cc([C@@H]2c3cc4c(cc3[C@@H](Sc3ccc(O)cc3)[C@H]3COC(=O)[C@H]23)OCO4)cc(OC)c1O | 1700 nM | 2.1 | 
120 nM |  |  |  | COc1cc([C@@H]2c3cc4c(cc3[C@@H](Nc3ccc(F)cc3)[C@H]3COC[C@H]23)OCO4)cc(OC)c1O | 1500 nM | 12.5 | 
10000 nM |  |  |  | CCN(CC)CCN[C@@H]1c2cc3c(cc2[C@@H](c2cc(OC)c(O)c(OC)c2)[C@H]2C(=O)OC[C@@H]21)OCO3 | 8000 nM | 0.8 | 
< 1 nM |  |  |  | COc1cc2c(cc1OC)[C@@H](Nc1ccc(C#N)cc1)[C@H]1COC(=O)[C@@H]1[C@@H]2c1cc(OC)c(O)c(OC)c1 | 141 nM | > 141 | 
450 nM |  |  |  | COc1cc([C@@H]2c3cc4c(cc3[C@@H](Oc3ccc(F)cc3)[C@H]3COC(=O)[C@H]23)OCO4)cc(OC)c1O | 800 nM | 1.8 | 
9 nM |  |  |  | Cc1cn([C@H]2C[C@H](N=[N+]=[N-])[C@@H](CO)O2)c(=O)[nH]c1=O [ZIDOVUDINE] | 500000 nM |  | 
450 nM |  |  |  | COc1cc([C@@H]2c3cc4c(cc3[C@@H](Nc3ccc(F)cc3)[C@H]3COC(O)[C@H]23)OCO4)cc(OC)c1O (some centres not stated) | 1800 nM | 4 | 
 |  |  |  | COc1cc([C@@H]2c3cc4c(cc3[C@H](O)[C@H]3COC(=O)[C@H]23)OCO4)cc(OC)c1OC [PODOFILOX] |  |  | Toxic
160 nM |  |  |  | CCS[C@@H]1c2cc3c(cc2[C@@H](c2cc(OC)c(OC)c(OC)c2)[C@H]2C(=O)OC[C@@H]21)OCO3 | 320 nM | 2 | 
 |  | < 1 nM |  | COc1cc2c(cc1OC)[C@@H](Nc1ccc([N+](=O)[O-])cc1)[C@H]1COC(=O)[C@@H]1[C@@H]2c1cc(OC)c(O)c(OC)c1 | 158 nM | > 158 | 
1700 nM |  |  |  | COc1cc([C@@H]2c3cc4c(cc3[C@@H](O)[C@H]3COC(=O)[C@H]23)OCO4)cc(N)c1N | 6600 nM | 3.9 | 
7000 nM |  |  |  | COc1cc([C@@H]2c3cc(O)c(O)cc3[C@@H](Nc3ccc(F)cc3)[C@H]3COC(=O)[C@H]23)cc(OC)c1O | 29000 nM | 4.1 | 
 |  |  | 3000 nM | COc1cc([C@@H]2c3cc4c(cc3C(=O)[C@H]3COC(=O)[C@H]23)OCO4)cc(O)c1O | 9000 nM | 3 | 
2200 nM |  |  |  | COc1cc2c(cc1OC)[C@@H](Nc1ccc(F)cc1)[C@H]1COC(=O)[C@@H]1[C@@H]2c1cc(OC)c(OC)c(OC)c1 | 9700 nM | 4.4 | 
 | Not Active |  |  | CCS[C@@H]1c2cc3c(cc2[C@@H](c2cc(OC)c(O)c(OC)c2)[C@H]2C(=O)OC[C@@H]21)OCO3 | 1900 nM |  | 
 | Not Active |  |  | COc1cc([C@@H]2c3cc(O)c(O)cc3[C@@H](O)[C@H]3COC(=O)[C@H]23)cc(OC)c1O | 45000 nM |  | 
< 1 nM |  |  |  | CCOC(=O)c1ccc(N[C@@H]2c3cc(OC)c(OC)cc3[C@@H](c3cc(OC)c(O)c(OC)c3)[C@H]3C(=O)OC[C@@H]32)cc1 | 120 nM | > 120 | 
 | Not Active |  |  | COc1cc([C@@H]2c3cc(O)c(O)cc3[C@H](O)[C@H]3COC(=O)[C@H]23)cc(OC)c1O | 1850 nM |  | 
 | No supperssion |  |  | CCN(CC)[C@@H]1c2cc3c(cc2[C@@H](c2cc(OC)c(O)c(OC)c2)[C@H]2C(=O)OC[C@@H]21)OCO3.Cl | > 100000 nM |  | 

Compound | EC50 (H9 [3]) | EC50 (H9 [4]) | EC50 (H9 [6]) | EC50 (H9 [7]) | IC50 (H9 [1]) | selectivity ratio [2] | IC50 (H9 [5])
COc1cc([C@@H]2c3cc4c(cc3C(=O)[C@H]3COC(=O)[C@H]23)OCO4)cc(OC)c1O | 800 nM |  |  |  | 1700 nM | 2.1 | 
COc1cc([C@@H]2c3cc4c(cc3[C@@H](Nc3ccc(F)cc3)[C@H]3COC(=O)[C@H]23)OCO4)cc(OC)c1OC | 450 nM |  |  |  | 1500 nM | 3.3 | 
COc1cc([C@@H]2c3cc4c(cc3[C@@H](O)[C@H]3COC(=O)[C@H]23)OCO4)cc(OC)c1O [4'-DEMETHYLEPIPODOPHYLLOTOXIN] |  | Not Active |  |  | 70 nM |  | 
COc1cc([C@@H]2c3cc4c(cc3[C@@H](Nc3ccc([N+](=O)[O-])cc3)[C@H]3COC(=O)[C@H]23)OCO4)cc(OC)c1O | < 1.28 nM |  |  |  | 70 nM | 55.8 | 
COc1cc2c(cc1OC)[C@@H](Nc1ccc(F)cc1)[C@H]1COC(=O)[C@@H]1[C@@H]2c1cc(OC)c(O)c(OC)c1 | < 1 nM |  |  |  | 166 nM | > 166 | 
COc1cc([C@@H]2c3cc4c(cc3[C@@H](Nc3ccc(F)cc3)[C@H]3COC(=O)[C@H]23)OCO4)cc(OC)c1O | 100 nM |  |  |  | 1000 nM | 10 | 
